US20160102052A1, “Use of Cysteamine in Treating Infections caused by Yeasts/Moulds” (priority 2014, published 2016)

How the values were obtained:
Test in all cases: MIC of clinical antifungals, CLSI M38-A2 broth microdilution
Assay type in all cases: cell-based
Candida krusei ATCC 6258 = conditions: Pichia kudriavzevii; for MIC50 / MIC80: ATCC6258, RPMI-1640; for MIC: ATCC6258, RPMI-1640, read-out: MIC100
Experimental: (§1) Two Candida spp. strains (C. krusei ATCC6258 & C. parapsilosis ATCC22019) and Exophiala jeanselmei reference strain NCPF2377 were also tested. These acted as quality control strains. Flat-bottomed Nunc Plates were prepared containing a serial doubling dilution of antifungals at 2× final concentration. […] These were incubated at 35° C. and read at 24 h and 48 h (Candida spp.) or 120 h (Exophiala spp.) on a BioTek plate reader at 530 nm. • 7. Culture of Candida spp. grown on Sabouraud dextrose agar slope overnight at 30° C. • 8. Exophiala cultures grown on potato dextrose agar slope for 6 days at 35° C. • 9. Cultures were removed from incubator and 2 ml sterile 0.15M NaCl was added to the overnight culture and spore and hyphal suspensions were harvested from the surface of the agar and transferred to a sterile plastic bijou tube. • a. Exophiala spp. cultures were allowed to rest for up to 10 min, allowing hyphae to settle to the bottom. The top layers of spores were transferred to a sterile plastic bijou tube. • 10. […] This is continued to A12 where 100 μl is removed and discarded. • f. This dilution series was repeated in rows B-D for the remaining 3 cultures • g. 0.5 McFarland Standard added to wells E1-E3 • h. Plate read at OD530 on BioTek. • i. Concentration of cells required will be the one that is the equivalent to the 0.5 McFarland Standard • 11. […] • 7. The highest final concentration on the plate will be as described in layouts at the end of the protocol. […] Wells A1-A3 and A7-A9 are prepared by the addition of 200 μl highest concentration of compound to the wells. • 10. All other wells contain 100 μl sterile dH2O. • 11. Serial dilutions are carried out from A1-A3 to B1-B3 whereby 100 μl is removed from A1-A3 and placed into B1-B3 and mixed well by pipetting. Then take 100 μl B1-B3 and place in C1-C3 and mix well. Take 100 μl from C1-C3 and add to D1-D3 and mix well. […] At H1-[…] μl is removed and added to A4-A6. The dilution series is carried down the plate in the same manner to wells G4-G6 where a final 100 μl is removed and discarded. H4-H6 contain water alone and will be untreated controls. • 12. The same procedure is repeated for the wells in columns A7-A9 and A10-A12. See plate layout at bottom of page. Inoculating Plates with Candida spp./Exophiala spp. • 5. […] Plates are read in the BioTek at OD530 nm. • 7. Plates are then placed in a plastic box which contains either a Petri dish of water. The box is sealed and incubated at 35° C. (Exophiala spp.) or 30° C. (Candida spp.). The presence of the water in the dish or on the tissue provides and environment of relatively high humidity. • 8. The OD530 of the Candida spp. plates are read after 24 h and 48 h, while the slower growing Exophiala spp. plates are read after 96 h and 120 h. • 9. Raw BioTek data is transformed using Gen5 software and represented graphically using GraphPad Prism 4 software and MICs determined.

[1] = tested on: Exophiala dermatitidis CA01; conditions: RPMI-1640, 35° C.; for MIC: read-out: MIC100
Experimental: as §1

[2] = tested on: Candida parapsilosis ATCC 22019; conditions: Lodderomyces parapsilosis; for MIC50 / MIC80: ATCC22019, RPMI-1640; for MIC: ATCC22019, RPMI-1640, read-out: MIC100
Experimental: as §1

[3] = tested on: Exophiala jeanselmei NCPF 2377; conditions: NCPF2377, RPMI-1640, 35° C.; for MIC: read-out: MIC100
Experimental: as §1

Row | Structure (SMILES) | MIC50 (Candida krusei ATCC 6258) | MIC80 (Candida krusei ATCC 6258) | MIC (Candida krusei ATCC 6258) | MIC50 [1] | MIC80 [1] | MIC [1] | MIC50 [2] | MIC80 [2] | MIC [2] | MIC50 [3] | MIC80 [3] | MIC [3]
1 | CC[C@H](C)C[C@H](C)CCCCCCCCC(=O)N[C@H]1C[C@@H](O)[C@@H](NCCN)NC(=O)[C@@H]2[C@@H](O)CCN2C(=O)[C@H]([C@H](O)CCN)NC(=O)[C@H]([C@H](O)[C@@H](O)c2ccc(O)cc2)NC(=O)[C@@H]2C[C@@H](O)CN2C(=O)[C@H]([C@@H](C)O)NC1=O [Caspofungin] | 0.5 µg/mL | 1 µg/mL | 1 µg/mL | 16 µg/mL | 32 µg/mL | 32 µg/mL | 1 µg/mL | 2 µg/mL | 64 µg/mL | 0.125 µg/mL | 64 µg/mL | > 64 µg/mL
2 | OC(Cn1cncn1)(Cn1cncn1)c1ccc(F)cc1F [Fluconazole] | 31.2 µg/mL | 62.5 µg/mL | 62.5 µg/mL | 250 µg/mL | 500 µg/mL | 500 µg/mL | 0.5 µg/mL | 1 µg/mL | 3.9 µg/mL | 250 µg/mL | 500 µg/mL | 1000 µg/mL
3 | CCC(C)n1ncn(-c2ccc(N3CCN(c4ccc(OCC5COC(Cn6cncn6)(c6ccc(Cl)cc6Cl)O5)cc4)CC3)cc2)c1=O (stereo not drawn) [Itraconazole] | 0.004 µg/mL | 0.125 µg/mL | 0.25 µg/mL | 2 µg/mL | > 32 µg/mL | > 32 µg/mL | 0.008 µg/mL | 0.016 µg/mL | 0.125 µg/mL | 0.125 µg/mL | 0.25 µg/mL | 0.25 µg/mL
